Results from PMC9532703, “A novel small molecule RK-019 inhibits FGFR2-amplification gastric cancer cell proliferation and induces apoptosis in vitro and in vivo” (Frontiers in Pharmacology, 2022).

Tests used:
Test in all cases: Kinase selectivity panel
Type in all cases: biochemical
[1] = biological target: T1, FGFR4(h) (Homo sapiens, UniProt P22455)
T1 construct: purchased Eurofins Discovery Services (KinaseProfiler)
Outline: (§1)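 The compound is tested at a fixed 1 µM in an in vitro binding assay based on competition at the ATP site of recombinant human kinase. Inhibition ratio is reported.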

[2] = biological target: T2, TrkA(h) (Homo sapiens, UniProt P04629); details: read-out: Inhibition(%) @ 1 µM RK-019
T2 construct: purchased Eurofins Discovery Services (KinaseProfiler)
Outline: as §1

[3] = biological target: T3, B-Raf(V599E)(h) (Homo sapiens, UniProt P15056, V600E); details: read-out: Inhibition(%) @ 1 µM RK-019
T3 construct: purchased Eurofins Discovery Services (KinaseProfiler)
Outline: as §1

[4] = biological target: T4, FGFR1(V561M)(h) (Homo sapiens, UniProt P11362, V561M); details: read-out: Inhibition(%) @ 1 µM RK-019
T4 construct: purchased Eurofins Discovery Services (KinaseProfiler)
Outline: as §1

[5] = biological target: T5, MELK(h) (Homo sapiens, UniProt Q14680); details: read-out: Inhibition(%) @ 1 µM RK-019
T5 construct: purchased Eurofins Discovery Services (KinaseProfiler)
Outline: as §1

[6] = biological target: T6, CaMKIIδ(h) (Homo sapiens, UniProt Q13557); details: read-out: Inhibition(%) @ 1 µM RK-019
T6 construct: purchased Eurofins Discovery Services (KinaseProfiler)
Outline: as §1

[7] = biological target: T7, JNK2α2(h) (Homo sapiens, UniProt P45984); details: read-out: Inhibition(%) @ 1 µM RK-019
T7 construct: purchased Eurofins Discovery Services (KinaseProfiler)
Outline: as §1

[8] = biological target: T8, CaMKIγ(h) (Homo sapiens, UniProt Q96NX5); details: read-out: Inhibition(%) @ 1 µM RK-019
T8 construct: purchased Eurofins Discovery Services (KinaseProfiler)
Outline: as §1

[9] = biological target: T9, DYRK3(h) (Homo sapiens, UniProt O43781); details: read-out: Inhibition(%) @ 1 µM RK-019
T9 construct: purchased Eurofins Discovery Services (KinaseProfiler)
Outline: as §1

[10] = biological target: T10, MEK2(h) (Homo sapiens, UniProt P36507); details: read-out: Inhibition(%) @ 1 µM RK-019
T10 construct: purchased Eurofins Discovery Services (KinaseProfiler)
Outline: as §1

[11] = biological target: T11, EphA1(h) (Homo sapiens, UniProt P21709); details: read-out: Inhibition(%) @ 1 µM RK-019
T11 construct: purchased Eurofins Discovery Services (KinaseProfiler)
Outline: as §1

[12] = biological target: T12, DDR2(h) (Homo sapiens, UniProt Q16832); details: read-out: Inhibition(%) @ 1 µM RK-019
T12 construct: purchased Eurofins Discovery Services (KinaseProfiler)
Outline: as §1

[13] = biological target: T13, FGFR1(h) (Homo sapiens, UniProt P11362)
T13 construct: purchased Eurofins Discovery Services (KinaseProfiler)
Outline: as §1

[14] = biological target: T14, PKCμ(h) (Homo sapiens, UniProt Q15139); details: read-out: Inhibition(%) @ 1 µM RK-019
T14 construct: purchased Eurofins Discovery Services (KinaseProfiler)
Outline: as §1

[15] = biological target: T15, DAPK1(h) (Homo sapiens, UniProt P53355); details: read-out: Inhibition(%) @ 1 µM RK-019
T15 construct: purchased Eurofins Discovery Services (KinaseProfiler)
Outline: as §1

[16] = biological target: T16, IRE1(h) (Homo sapiens, UniProt O75460); details: read-out: Inhibition(%) @ 1 µM RK-019
T16 construct: purchased Eurofins Discovery Services (KinaseProfiler)
Outline: as §1

[17] = biological target: T17, PKG1β(h) (Homo sapiens, UniProt Q13976); details: read-out: Inhibition(%) @ 1 µM RK-019
T17 construct: purchased Eurofins Discovery Services (KinaseProfiler)
Outline: as §1

[18] = biological target: T18, ALK2(h) (Homo sapiens, UniProt Q04771); details: read-out: Inhibition(%) @ 1 µM RK-019
T18 construct: purchased Eurofins Discovery Services (KinaseProfiler)
Outline: as §1

[19] = biological target: T19, ALK4(h) (Homo sapiens, UniProt P36896); details: read-out: Inhibition(%) @ 1 µM RK-019
T19 construct: purchased Eurofins Discovery Services (KinaseProfiler)
Outline: as §1

[20] = biological target: T20, TTK(h) (Homo sapiens, UniProt P33981); details: read-out: Inhibition(%) @ 1 µM RK-019
T20 construct: purchased Eurofins Discovery Services (KinaseProfiler)
Outline: as §1

[21] = biological target: T21, ALK6(h) (Homo sapiens, UniProt O00238); details: read-out: Inhibition(%) @ 1 µM RK-019
T21 construct: purchased Eurofins Discovery Services (KinaseProfiler)
Outline: as §1

[22] = biological target: T22, MLK2(h) (Homo sapiens, UniProt Q02779); details: read-out: Inhibition(%) @ 1 µM RK-019
T22 construct: purchased Eurofins Discovery Services (KinaseProfiler)
Outline: as §1

[23] = biological target: T23, CDK4/cyclinD3(h) (Homo sapiens, UniProt P11802); details: read-out: Inhibition(%) @ 1 µM RK-019
T23 construct: purchased Eurofins Discovery Services (KinaseProfiler)
Outline: as §1

[24] = biological target: T24, Syk(h) (Homo sapiens, UniProt P43405); details: read-out: Inhibition(%) @ 1 µM RK-019
T24 construct: purchased Eurofins Discovery Services (KinaseProfiler)
Outline: as §1

[25] = biological target: T25, PI3KC2a(h) (Homo sapiens, UniProt O00443); details: read-out: Inhibition(%) @ 1 µM RK-019
T25 construct: purchased Eurofins Discovery Services (KinaseProfiler)
Outline: as §1

[26] = biological target: T26, PDGFRβ(h) (Homo sapiens, UniProt P09619); details: read-out: Inhibition(%) @ 1 µM RK-019
T26 construct: purchased Eurofins Discovery Services (KinaseProfiler)
Outline: as §1

[27] = biological target: T27, JAK1(h) (Homo sapiens, UniProt P23458); details: read-out: Inhibition(%) @ 1 µM RK-019
T27 construct: purchased Eurofins Discovery Services (KinaseProfiler)
Outline: as §1

[28] = biological target: T28, STK33(h) (Homo sapiens, UniProt Q9BYT3); details: read-out: Inhibition(%) @ 1 µM RK-019
T28 construct: purchased Eurofins Discovery Services (KinaseProfiler)
Outline: as §1

[29] = biological target: T29, EphA5(h) (Homo sapiens, UniProt P54756); details: read-out: Inhibition(%) @ 1 µM RK-019
T29 construct: purchased Eurofins Discovery Services (KinaseProfiler)
Outline: as §1

[30] = biological target: T30, BTK(R28H)(h) (Homo sapiens, UniProt Q06187, R28H); details: read-out: Inhibition(%) @ 1 µM RK-019
T30 construct: purchased Eurofins Discovery Services (KinaseProfiler)
Outline: as §1

[31] = biological target: T31, Fgr(h) (Homo sapiens, UniProt P09769); details: read-out: Inhibition(%) @ 1 µM RK-019
T31 construct: purchased Eurofins Discovery Services (KinaseProfiler)
Outline: as §1

[32] = biological target: T32, cKit(h) (Homo sapiens, UniProt P10721); details: read-out: Inhibition(%) @ 1 µM RK-019
T32 construct: purchased Eurofins Discovery Services (KinaseProfiler)
Outline: as §1

[33] = biological target: T33, MKK4(m) (Mus musculus, UniProt P47809); details: read-out: Inhibition(%) @ 1 µM RK-019
T33 construct: purchased Eurofins Discovery Services (KinaseProfiler)

[34] = biological target: T34, Wee1B(h) (Homo sapiens, UniProt P0C1S8); details: read-out: Inhibition(%) @ 1 µM RK-019
T34 construct: purchased Eurofins Discovery Services (KinaseProfiler)
Outline: as §1

[35] = biological target: T35, CaMKIIα(h) (Homo sapiens, UniProt Q9UQM7); details: read-out: Inhibition(%) @ 1 µM RK-019
T35 construct: purchased Eurofins Discovery Services (KinaseProfiler)
Outline: as §1

[36] = biological target: T36, Ret (V804L)(h) (Homo sapiens, UniProt P07949, V804L); details: read-out: Inhibition(%) @ 1 µM RK-019
T36 construct: purchased Eurofins Discovery Services (KinaseProfiler)
Outline: as §1

T13 sequence (P11362 22-822): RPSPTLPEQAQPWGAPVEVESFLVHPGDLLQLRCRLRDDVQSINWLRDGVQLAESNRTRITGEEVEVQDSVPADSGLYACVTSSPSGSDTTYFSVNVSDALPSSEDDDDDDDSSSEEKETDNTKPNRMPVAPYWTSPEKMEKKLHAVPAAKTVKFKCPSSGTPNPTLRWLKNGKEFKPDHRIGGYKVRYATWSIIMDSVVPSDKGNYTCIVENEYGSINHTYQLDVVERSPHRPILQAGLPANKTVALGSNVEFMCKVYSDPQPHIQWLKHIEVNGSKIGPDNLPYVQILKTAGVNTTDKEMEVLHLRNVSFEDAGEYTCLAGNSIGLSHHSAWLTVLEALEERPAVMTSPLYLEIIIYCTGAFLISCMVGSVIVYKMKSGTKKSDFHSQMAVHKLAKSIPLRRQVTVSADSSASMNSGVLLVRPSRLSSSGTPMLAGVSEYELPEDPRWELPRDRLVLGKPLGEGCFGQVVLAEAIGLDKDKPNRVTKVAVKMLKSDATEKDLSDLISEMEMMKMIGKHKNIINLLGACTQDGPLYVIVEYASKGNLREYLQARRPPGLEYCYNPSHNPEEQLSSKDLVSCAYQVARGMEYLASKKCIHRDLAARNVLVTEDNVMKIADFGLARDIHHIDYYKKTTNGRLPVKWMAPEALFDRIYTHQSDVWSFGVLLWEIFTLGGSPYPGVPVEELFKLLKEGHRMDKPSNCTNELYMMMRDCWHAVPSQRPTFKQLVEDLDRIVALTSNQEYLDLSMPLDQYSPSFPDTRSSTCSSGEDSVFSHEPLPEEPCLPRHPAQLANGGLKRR
T1 sequence (P22455 22-802): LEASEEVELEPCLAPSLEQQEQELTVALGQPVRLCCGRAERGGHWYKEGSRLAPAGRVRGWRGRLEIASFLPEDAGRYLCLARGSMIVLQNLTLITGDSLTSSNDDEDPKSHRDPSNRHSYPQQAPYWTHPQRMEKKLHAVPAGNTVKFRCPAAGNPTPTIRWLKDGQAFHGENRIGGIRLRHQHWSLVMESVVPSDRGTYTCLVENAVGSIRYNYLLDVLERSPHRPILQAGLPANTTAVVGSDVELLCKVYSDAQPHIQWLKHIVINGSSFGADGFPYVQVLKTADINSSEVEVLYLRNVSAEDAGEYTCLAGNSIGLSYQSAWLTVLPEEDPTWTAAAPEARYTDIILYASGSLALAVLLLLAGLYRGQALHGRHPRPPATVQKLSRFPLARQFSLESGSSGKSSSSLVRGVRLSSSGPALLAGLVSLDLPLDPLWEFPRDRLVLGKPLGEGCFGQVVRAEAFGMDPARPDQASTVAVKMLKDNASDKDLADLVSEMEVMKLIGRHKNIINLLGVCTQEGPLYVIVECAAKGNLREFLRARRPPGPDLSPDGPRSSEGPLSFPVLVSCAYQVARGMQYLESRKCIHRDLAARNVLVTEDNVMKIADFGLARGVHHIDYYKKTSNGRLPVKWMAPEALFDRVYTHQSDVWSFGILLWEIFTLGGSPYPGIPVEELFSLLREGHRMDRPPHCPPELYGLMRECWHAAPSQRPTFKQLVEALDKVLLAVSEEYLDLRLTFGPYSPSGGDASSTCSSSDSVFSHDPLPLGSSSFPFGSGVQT
T8 sequence (Q96NX5 whole entry): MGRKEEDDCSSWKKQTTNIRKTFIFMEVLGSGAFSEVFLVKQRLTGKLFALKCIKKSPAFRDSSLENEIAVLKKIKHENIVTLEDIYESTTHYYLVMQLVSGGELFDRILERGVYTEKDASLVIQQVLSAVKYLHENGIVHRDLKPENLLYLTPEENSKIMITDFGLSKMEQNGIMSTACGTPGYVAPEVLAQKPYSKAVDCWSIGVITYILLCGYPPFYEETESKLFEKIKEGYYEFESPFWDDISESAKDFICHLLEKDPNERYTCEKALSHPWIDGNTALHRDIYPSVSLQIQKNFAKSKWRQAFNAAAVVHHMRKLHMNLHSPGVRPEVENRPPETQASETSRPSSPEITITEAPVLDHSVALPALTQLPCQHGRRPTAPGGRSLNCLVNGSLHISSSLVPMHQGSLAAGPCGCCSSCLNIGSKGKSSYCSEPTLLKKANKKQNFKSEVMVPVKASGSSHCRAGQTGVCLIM
T5 sequence (Q14680 whole entry): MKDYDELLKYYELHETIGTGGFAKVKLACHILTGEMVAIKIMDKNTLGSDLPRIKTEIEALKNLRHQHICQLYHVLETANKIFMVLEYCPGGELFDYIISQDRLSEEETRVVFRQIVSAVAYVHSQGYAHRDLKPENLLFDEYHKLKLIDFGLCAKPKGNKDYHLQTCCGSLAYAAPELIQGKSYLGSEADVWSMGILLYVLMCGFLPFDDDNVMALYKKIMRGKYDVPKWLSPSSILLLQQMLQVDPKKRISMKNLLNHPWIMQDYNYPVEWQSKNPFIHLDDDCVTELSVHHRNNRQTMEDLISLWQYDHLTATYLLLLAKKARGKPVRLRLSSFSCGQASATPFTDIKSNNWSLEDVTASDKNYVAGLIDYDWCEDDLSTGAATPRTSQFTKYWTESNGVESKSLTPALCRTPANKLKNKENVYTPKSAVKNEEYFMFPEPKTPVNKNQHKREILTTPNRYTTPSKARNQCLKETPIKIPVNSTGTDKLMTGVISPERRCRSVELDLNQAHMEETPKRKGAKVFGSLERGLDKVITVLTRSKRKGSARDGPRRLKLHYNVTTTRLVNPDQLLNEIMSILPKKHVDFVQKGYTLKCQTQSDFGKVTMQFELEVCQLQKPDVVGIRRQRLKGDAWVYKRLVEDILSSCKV
T21 sequence (O00238 14-502): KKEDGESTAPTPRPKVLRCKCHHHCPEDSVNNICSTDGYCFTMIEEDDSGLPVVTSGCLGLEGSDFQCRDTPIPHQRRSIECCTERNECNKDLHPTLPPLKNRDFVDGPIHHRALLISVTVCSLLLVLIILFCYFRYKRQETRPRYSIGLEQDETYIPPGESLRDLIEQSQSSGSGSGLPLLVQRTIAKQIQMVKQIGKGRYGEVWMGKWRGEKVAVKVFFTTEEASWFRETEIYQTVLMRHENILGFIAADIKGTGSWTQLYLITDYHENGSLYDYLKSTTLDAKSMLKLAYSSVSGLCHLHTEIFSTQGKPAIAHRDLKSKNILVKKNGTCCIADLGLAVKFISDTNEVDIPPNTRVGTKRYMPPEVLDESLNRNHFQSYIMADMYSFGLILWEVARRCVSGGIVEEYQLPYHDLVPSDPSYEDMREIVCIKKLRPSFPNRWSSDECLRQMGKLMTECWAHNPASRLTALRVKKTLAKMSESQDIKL
T20 sequence (P33981 whole entry): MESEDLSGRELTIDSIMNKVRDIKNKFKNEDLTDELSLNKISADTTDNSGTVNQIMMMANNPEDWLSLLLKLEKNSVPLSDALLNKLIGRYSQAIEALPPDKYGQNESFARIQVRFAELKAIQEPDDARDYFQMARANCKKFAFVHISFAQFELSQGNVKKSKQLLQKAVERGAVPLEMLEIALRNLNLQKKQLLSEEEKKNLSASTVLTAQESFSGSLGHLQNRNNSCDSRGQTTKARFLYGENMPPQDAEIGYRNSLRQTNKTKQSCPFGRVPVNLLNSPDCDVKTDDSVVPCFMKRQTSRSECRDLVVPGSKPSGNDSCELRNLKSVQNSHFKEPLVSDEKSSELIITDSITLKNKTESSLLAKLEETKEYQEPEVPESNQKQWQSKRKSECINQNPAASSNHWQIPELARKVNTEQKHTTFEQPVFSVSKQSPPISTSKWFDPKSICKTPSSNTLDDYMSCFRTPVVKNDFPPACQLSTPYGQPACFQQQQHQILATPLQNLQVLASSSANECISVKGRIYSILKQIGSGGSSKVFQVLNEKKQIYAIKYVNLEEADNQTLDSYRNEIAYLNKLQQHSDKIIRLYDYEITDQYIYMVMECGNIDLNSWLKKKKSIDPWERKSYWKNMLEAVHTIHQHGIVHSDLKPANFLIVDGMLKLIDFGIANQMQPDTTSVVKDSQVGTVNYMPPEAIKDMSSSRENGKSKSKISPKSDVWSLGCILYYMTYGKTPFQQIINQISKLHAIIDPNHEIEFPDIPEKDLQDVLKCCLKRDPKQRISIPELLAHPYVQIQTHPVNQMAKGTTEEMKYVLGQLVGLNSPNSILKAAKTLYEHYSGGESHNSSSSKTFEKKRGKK
T16 sequence (O75460 19-977): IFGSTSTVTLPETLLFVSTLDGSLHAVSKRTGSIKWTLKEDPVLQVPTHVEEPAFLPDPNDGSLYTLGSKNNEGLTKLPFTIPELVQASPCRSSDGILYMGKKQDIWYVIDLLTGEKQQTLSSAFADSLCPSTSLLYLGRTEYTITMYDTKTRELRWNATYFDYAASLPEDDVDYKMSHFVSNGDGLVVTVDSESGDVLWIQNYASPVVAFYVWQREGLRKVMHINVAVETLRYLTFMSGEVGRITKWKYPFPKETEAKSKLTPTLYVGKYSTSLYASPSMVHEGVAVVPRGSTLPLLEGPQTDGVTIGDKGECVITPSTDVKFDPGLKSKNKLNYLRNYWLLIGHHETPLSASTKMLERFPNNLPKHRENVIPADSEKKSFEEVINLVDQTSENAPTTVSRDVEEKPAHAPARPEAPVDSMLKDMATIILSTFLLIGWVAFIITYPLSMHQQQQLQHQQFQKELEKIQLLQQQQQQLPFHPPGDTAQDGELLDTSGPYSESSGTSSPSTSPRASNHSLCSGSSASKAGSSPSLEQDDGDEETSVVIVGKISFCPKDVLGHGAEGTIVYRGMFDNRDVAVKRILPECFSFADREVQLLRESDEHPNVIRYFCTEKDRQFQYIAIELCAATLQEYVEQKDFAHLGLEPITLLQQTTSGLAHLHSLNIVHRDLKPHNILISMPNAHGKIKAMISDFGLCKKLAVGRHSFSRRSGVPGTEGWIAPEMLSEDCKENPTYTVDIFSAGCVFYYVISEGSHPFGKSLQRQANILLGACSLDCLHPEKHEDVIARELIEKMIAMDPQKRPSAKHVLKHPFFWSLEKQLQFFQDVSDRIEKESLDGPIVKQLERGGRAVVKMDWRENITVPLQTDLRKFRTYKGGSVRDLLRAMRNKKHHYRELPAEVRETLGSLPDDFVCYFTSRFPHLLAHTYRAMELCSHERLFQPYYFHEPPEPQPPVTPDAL
T4 sequence (P11362 22-822 V561M): as the sequence (P11362 22-822) above, with V540M counted along it

## COc1cc(OC)cc(N(CCN[C@H](C)CO)c2ccc3ncc(-c4cnn(C)c4)c(=O)n3c2)c1 [RK-019, (R)-7-((3,5-dimethoxyphenyl) (2-((1-hydroxypropan-2-yl)amino)ethyl)amino)-3-(1-methyl-1H-pyrazol-4-yl)-4H-pyrido [1,2-a]pyrimidin-4-one]
[1]; FGFR4(h), read-out: Inhibition(%) @ 1 µM RK-019
  activity at 1 µM: 5%
[1]; FGFR4, 1 µM, read-out: inhibition (hit in panel)
  inhibition at 1 µM: > 90%
[2]
  activity at 1 µM: 92%
[3]
  activity at 1 µM: 70%
[4]
  activity at 1 µM: 70%
[5]
  activity at 1 µM: 104%
[6]
  activity at 1 µM: 108%
[7]
  activity at 1 µM: 99%
[8]
  activity at 1 µM: 93%
[9]
  activity at 1 µM: 88%
[10]
  activity at 1 µM: 85%
[11]
  activity at 1 µM: 19%
[12]
  activity at 1 µM: 109%
[13]; FGFR1(h), read-out: Inhibition(%) @ 1 µM RK-019
  activity at 1 µM: -1%
[13]; FGFR1, 1 µM, read-out: inhibition (hit in panel)
  inhibition at 1 µM: > 90%
[14]
  activity at 1 µM: 107%
[15]
  activity at 1 µM: 100%
[16]
  activity at 1 µM: 93%
[17]
  activity at 1 µM: 103%
[18]
  activity at 1 µM: 90%
[19]
  activity at 1 µM: 91%
[20]
  activity at 1 µM: 98%
[21]
  activity at 1 µM: 107%
[22]
  activity at 1 µM: 103%
[23]
  activity at 1 µM: 101%
[24]
  activity at 1 µM: 116%
[25]
  activity at 1 µM: 104%
[26]
  activity at 1 µM: 54%
[27]
  activity at 1 µM: 120%
[28]
  activity at 1 µM: 98%
[29]
  activity at 1 µM: 45%
[30]
  activity at 1 µM: 83%
[31]
  activity at 1 µM: 54%
[32]
  activity at 1 µM: 73%
[33]
  activity at 1 µM: 107%
[34]
  activity at 1 µM: 107%
[35]
  activity at 1 µM: 64%
[36]
  activity at 1 µM: 92%
